# Read-outs that look alike come from different tables or passages of the source.
# Molecular target: T1, BCL6 (Homo sapiens, UniProt P41182)
# T1 construct: endogenous in cells; host or cells: T47D breast cancer epithelial cells
# Test: Immunofluorescence protocol for high content imaging of BCL6 (degradation) in T47D cells, 3 days compound treatment
# Assay type: cell-based
# Settings: for Dmax: read-out: Mean Dmax (%)** category; for DC50: read-out: Mean DC50 (nM)* category
# Description: Immunofluorescence Protocol for High Content Imaging of BCL6
# T47D cells were seeded in 100 μl volume of RPMI1640-10% FBS in a 96-well black/clear bottom plates for adherent lines (Corning #3904).
# Day 1. T47D breast cancer epithelial cells were seeded at a density so that confluence is ˜70-90% at endpoint. Cells were seeded at 7K/0.1 ml/well the morning prior to the addition of exemplary bifunctional degradation compounds.
# Day 2. Prepare an 11 point 3-fold serial dilution of exemplary bifunctional compound in DMSO and aliquot an appropriate volume to cell growth media to generate a 2× final concentration of exemplary bifunctional compound. Add an equal volume (0.1 ml) of 2× exemplary bifunctional compound/media mix to previously plated cells, for a final top concentration in aqueous cell growth media of 0.1 or 1 μM. Incubate for 3 days at 37° C., 5% CO2.
# Day 5 Immunofluorescence. Discard cell media. Wash wells with 200 μl of room temperature phosphate-buffered saline (PBS). Prepared 4% paraformaldehyde (PFA) from 16% PFA (Electron Microscopy Sciences #15710) using 1×PBS. Fifty μl of 4% PF was added to each well and incubate for 15 minutes at room temperature to fix the cells. The PFA was aspirated and the cells washed twice with PBS (200 μl)).
# Prepared 0.1% Triton X-100 in PBS using 10% triton X-100 stock. The cells were permeabilized by adding 100 ul of the 0.1% Triton X-100 in PBS to each well to permeabilize cells and incubating at room temperature for 15 minutes. Cells were washed twice with PBS.
# Prepared 3% BSA/PBS (from Thermofisher #37515 Blocker BSA in TBS, 10%), and 100 ul was added to each well. The cells were incubated for at least 1 hour at room temperature.
# Prepared 1% BSA/PBS using Blocker BSA/PBS, and the 3% BSA/PBS removed from the wells.
# For no primary antibody controls, 50 μl 1% BSA/PBS was added.
# Primary antibody (BCL6 Rb Ab, CST-14895, Cell Signaling) was diluted 1:300 in 1% BSA/PBS using Blocker BSA/PBS.
# Fifty μl of primary antibody added to all remaining wells (i.e., all wells other than the primary antibody controls) and the cells were incubated overnight at 4° C. with slow orbital movement.
# Day 6. Contents of the wells was removed and the cells washed four times with 200 ul PBS. 1% BSA/PBS was prepared using Blocker BSA in PBS.
# Diluted secondary antibody goat anti-Rb IgG Alexa-488 1:1000, and cell mask-Alexa-647 1:3000 in 1% BSA/PBS in the same mix. Add 50 μl to each well and incubate at room temperature for 1 hour in the dark.
# Cells were washed three times with 200 ul PBS, and then incubated for 10 minutes with 100 ul Hoechst dye at 1 μg/mL (20 mM stock) to stain cell nuclei. Wells were then washed with 200 μl PBS, and 100 ul of PBS was added to each well and the plate covered plate with a plastic opaque cover. Plates were stored at 4° C. and covered in aluminum foil until imaged.
# Plates were equilibrated to room temperature prior to reading. The bottom of the plate was wiped with 70% isopropanol immediately prior to imaging.
# 10×, 4 fields/well, include Top hat smoothing in the analysis protocol.
# 16% paraformaldehyde: Electron Microscopy Sciences #15710
# Hoechst: Thermofisher #62249
# Blocker BSA in PBS, 10%: Thermofisher #37515
# Blocker BSA in TBS, 10%: Thermofisher #37520
# Goat anti-rabbit or mouse AlexaFluor-488: Thermofisher #A11008
# Cell mask deep red AlexaFluor-647: Thermofisher #C10046
# Wash buffer, PBS: 20×PBS, Thermofisher
# [1] = T47D cells, 3 days compound treatment
SMILES,Dmax (T47D) [%],DC50 [nM],DC50 [1] [nM],Dmax [1] [%]
"CNC(=O)COc1cc2cc(Nc3nc(N4CCN(CC5CCC6(CC5)CN(c5cc7c(cc5F)C(=O)N(C5CCC(=O)NC5=O)C7)C6)CC4)ncc3Cl)ccc2n(C(C)C)c1=O (centres unmarked) [Compound 306, 2-{[6-({5-chloro-2-[4-({2-[2-(2,6-dioxopiperidin-3-yl)-6-fluoro-1-oxo-2,3-dihydro-1H-isoindol-5-yl]-2-azaspiro[3.5]nonan-7-yl}methyl)piperazin-1-yl]pyrimidin-4-yl}amino)-2-oxo-1-(propan-2-yl)-1,2-dihydroquinolin-3-yl]oxy}-N-methylacetamide]",50 to 70,< 10,,
"CNC(=O)COc1cc2c(F)c(Nc3nc(N4CCC(O[C@H]5C[C@H](N6CCC(c7ccc8c(c7)C(=O)N(C7CCC(=O)NC7=O)C8=O)CC6)C5)CC4)ncc3Cl)ccc2n(C(C)C)c1=O (some centres unmarked) [Compound 172, 2-({6-[(5-chloro-2-{4-[(1r,3r)-3-{4-[2-(2,6-dioxopiperidin-3-yl)-1,3-dioxo-2,3-dihydro-1H-isoindol-5-yl]piperidin-1-yl}cyclobutoxy]piperidin-1-yl}pyrimidin-4-yl)amino]-5-fluoro-2-oxo-1-(propan-2-yl)-1,2-dihydroquinolin-3-yl}oxy)-N-methylacetamide]",,,< 10,≥ 70
"CCc1c(N2CCN([C@H]3C[C@H](OC4CCN(c5ncc(Cl)c(Nc6ccc7c(c6)cc(OCC(=O)NC)c(=O)n7C(C)C)n5)CC4)C3)CC2)ccc2c1C(=O)N(C1CCC(=O)NC1=O)C2=O (some centres unmarked) [Compound 200, 2-({6-[(5-chloro-2-{4-[(1r,3r)-3-{4-[2-(2,6-dioxopiperidin-3-yl)-4-ethyl-1,3-dioxo-2,3-dihydro-1H-isoindol-5-yl]piperazin-1-yl}cyclobutoxy]piperidin-1-yl}pyrimidin-4-yl)amino]-2-oxo-1-(propan-2-yl)-1,2-dihydroquinolin-3-yl}oxy)-N-methylacetamide]",,,10 to 50,≥ 70
CNC(=O)COc1cc2cc(Nc3nc(N4CCC(OC5CN([C@H]6CC[C@H](c7ccc8c(c7Cl)CN(C7CCC(=O)NC7=O)C8=O)CC6)C5)CC4)ncc3Cl)ccc2n(C(C)C)c1=O (some centres unmarked) [Compound 185],,,< 10,50 to 70
CNC(=O)COc1cc2cc(Nc3nc(N4CCC(O[C@H]5C[C@H](N6CC=C(c7ccc8c(c7Cl)CN([C@H]7CCC(=O)NC7=O)C8=O)CC6)C5)CC4)ncc3Cl)ccc2n(C(C)C)c1=O [Compound 428],≥ 70,< 10,,
"CNC(=O)COc1cc2cc(Nc3nc(N4CCC(O[C@H]5C[C@H](N6CCN(c7ccc8c(c7Cl)CN(C7CCC(=O)NC7=O)C8=O)[C@H](C)C6)C5)CC4)ncc3Cl)ccc2n(C(C)C)c1=O (stereo partly drawn) [Compound 202, 2-({6-[(5-chloro-2-{4-[(1r,3r)-3-[(3R)-4-[4-chloro-2-(2,6-dioxopiperidin-3-yl)-1-oxo-2,3-dihydro-1H-isoindol-5-yl]-3-methylpiperazin-1-yl]cyclobutoxy]piperidin-1-yl}pyrimidin-4-yl)amino]-2-oxo-1-(propan-2-yl)-1,2-dihydroquinolin-3-yl}oxy)-N-methylacetamide]",,,< 10,≥ 70
"CNC(=O)COc1cc2cc(Nc3nc(N4CCC(O[C@H]5C[C@H](N6CCN(c7ccc8c(c7F)CN([C@H]7CCC(=O)NC7=O)C8=O)[C@H](C)C6)C5)CC4)ncc3Cl)ccc2n(C(C)C)c1=O [Compound 394, 2-({6-[(5-chloro-2-{4-[(1r,3r)-3-[(3R)-4-{2-[(3S)-2,6-dioxopiperidin-3-yl]-4-fluoro-1-oxo-2,3-dihydro-1H-isoindol-5-yl}-3-methylpiperazin-1-yl]cyclobutoxy]piperidin-1-yl}pyrimidin-4-yl)amino]-2-oxo-1-(propan-2-yl)-1,2-dihydroquinolin-3-yl}oxy)-N-methylacetamide]",≥ 70,< 10,,
"CNC(=O)COc1cc2cc(Nc3nc(N4CCC(O[C@H]5C[C@H](N6CCC(c7ccc8c(c7)C(=O)N(C7CCC(=O)NC7=O)C8=O)C(C)(C)C6)C5)CC4)ncc3Cl)ccc2n(C(C)C)c1=O (some centres unmarked) [Compound 399, 2-({6-[(5-chloro-2-{4-[(1r,3r)-3-{4-[2-(2,6-dioxopiperidin-3-yl)-1,3-dioxo-2,3-dihydro-1H-isoindol-5-yl]-3,3-dimethylpiperidin-1-yl}cyclobutoxy]piperidin-1-yl}pyrimidin-4-yl)amino]-2-oxo-1-(propan-2-yl)-1,2-dihydroquinolin-3-yl}oxy)-N-methylacetamide]",≥ 70,10 to 50,,
"CNC(=O)COc1cc2cc(Nc3nc(N4CCC(O[C@H]5C[C@H](N6CCC(c7ccc8c(c7F)CN(C7CCC(=O)NC7=O)C8=O)CC6)C5)CC4)ncc3Cl)ccc2n(C2CCC2)c1=O (some centres unmarked) [Compound 190, 2-({6-[(5-chloro-2-{4-[(1r,3r)-3-{4-[2-(2,6-dioxopiperidin-3-yl)-4-fluoro-1-oxo-2,3-dihydro-1H-isoindol-5-yl]piperidin-1-yl}cyclobutoxy]piperidin-1-yl}pyrimidin-4-yl)amino]-1-cyclobutyl-2-oxo-1,2-dihydroquinolin-3-yl}oxy)-N-methylacetamide]",,,< 10,≥ 70
"CNC(=O)COc1cc2cc(Nc3nc(N4CCC(O[C@H]5C[C@H](N6CC[C@@H](c7ccc8c(c7F)CN([C@H]7CCC(=O)NC7=O)C8=O)C(C)(C)C6)C5)CC4)ncc3Cl)ccc2n(C(C)C)c1=O [Compound 209, 2-({6-[(5-chloro-2-{4-[(1r,3r)-3-[(4R)-4-{2-[(3S)-2,6-dioxopiperidin-3-yl]-4-fluoro-1-oxo-2,3-dihydro-1H-isoindol-5-yl}-3,3-dimethylpiperidin-1-yl]cyclobutoxy]piperidin-1-yl}pyrimidin-4-yl)amino]-2-oxo-1-(propan-2-yl)-1,2-dihydroquinolin-3-yl}oxy)-N-methylacetamide]",,,< 10,≥ 70
"CNC(=O)COc1cc2cc(Nc3nc(N4CCC(O[C@H]5C[C@H](N6CCC7(CN(c8ccc9c(c8)CN(C8CCC(=O)NC8=O)C9=O)C7)C6)C5)CC4)ncc3Cl)ccc2n(C(C)C)c1=O (some centres unmarked) [Compound 344, 2-({6-[(5-chloro-2-{4-[(1r,3r)-3-{2-[2-(2,6-dioxopiperidin-3-yl)-1-oxo-2,3-dihydro-1H-isoindol-5-yl]-2,6-diazaspiro [3.4]octan-6-yl}cyclobutoxy]piperidin-1-yl}pyrimidin-4-yl)amino]-2-oxo-1-(propan-2-yl)-1,2-dihydroquinolin-3-yl}oxy)-N-methylacetamide]",< 50,< 10,,
"CNC(=O)COc1cc2cc(Nc3nc(N4CCC(O[C@H]5C[C@H](N6C[C@@H](C)N(c7ccc8c(c7)C(=O)N(C7CCC(=O)NC7=O)C8=O)[C@H](C)C6)C5)CC4)ncc3Cl)ccc2n(C(C)C)c1=O (stereo partly drawn) [Compound 245, 2-({6-[(5-chloro-2-{4-[(1r,3r)-3-[(3R,5R)-4-[2-(2,6-dioxopiperidin-3-yl)-1,3-dioxo-2,3-dihydro-1H-isoindol-5-yl]-3,5-dimethylpiperazin-1-yl]cyclobutoxy]piperidin-1-yl}pyrimidin-4-yl)amino]-2-oxo-1-(propan-2-yl)-1,2-dihydroquinolin-3-yl}oxy)-N-methylacetamide]",≥ 70,10 to 50,,
"CNC(=O)COc1cc2cc(Nc3nc(N4CCC(CN5CCC6(CCN(c7ccc8c(c7)CN(C7CCC(=O)NC7=O)C8=O)C6)C5=O)CC4)ncc3Cl)ccc2n(C(C)C)c1=O (centres unmarked) [Compound 60, 2-{[6-({5-chloro-2-[4-({7-[2-(2,6-dioxopiperidin-3-yl)-1-oxo-2,3-dihydro-1H-isoindol-5-yl]-1-oxo-2,7-diazaspiro[4.4]nonan-2-yl}methyl)piperidin-1-yl]pyrimidin-4-yl}amino)-2-oxo-1-(propan-2-yl)-1,2-dihydroquinolin-3-yl]oxy}-N-methylacetamide]",,,< 10,50 to 70

# From patent publication US11986532B2 (Arvinas Operations, Inc., priority 2021, dated 2024)
